Laboratory results from patent US20100144872A1, “New Methylenebisphenyl Compounds Useful in the Treatment of Inflammation” (Biolipox AB, priority 2007, published 2010).

These compounds were tested against T1, Recombinant human LTC4 synthase (Homo sapiens, UniProt Q16873) (assay: LTC4 synthase assay (conversion of LTA4 methyl ester to LTC4 methyl ester, HPLC)). Details: biological test described above; PBS pH 7.4 with 5 mM GSH, substrate LTA4 methyl ester.
T1 construct: made in house; host or cells: Pichia pastoris ('Piccia pastoralis' [sic])
T1 sequence (Q16873 1-150): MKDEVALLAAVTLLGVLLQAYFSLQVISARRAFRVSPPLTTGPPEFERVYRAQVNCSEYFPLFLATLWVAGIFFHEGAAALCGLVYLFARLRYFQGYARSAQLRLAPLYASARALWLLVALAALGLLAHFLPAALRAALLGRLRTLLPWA
Type: biochemical
Experimental: In the assay LTC4 synthase catalyses the reaction where the substrate LTA4 methyl ester is converted to LTC4 methyl ester. Recombinant human LTC4 synthase is expressed in Piccia pastoralis and the purified enzyme is dissolved in 25 mM Tris-buffer pH 7.8 and stored at −20° C. The assay is performed in phosphate buffered saline (PBS) pH 7.4, supplemented with 5 mM glutathione (GSH). The reaction is terminated by addition of acetonitrile/MeOH/acetic acid (50/50/1). The assay is performed at it in 96-well plates. Analysis of the formed LTC4 methyl ester is performed with reversed phase HPLC (Waters 2795 utilizing an Onyx Monolithic C18 column). The mobile phase consists of acetonitrile/MeOH/H2O (32.5/30/37.5) with 1% acetic acid pH adjusted with NH3 to pH 5.6, and absorbance measured at 280 nm with a Waters 2487 UV-detector.
The following is added chronologically to each well: • 1. 50 μl assay buffer, PBS with 5 mM GSH. • 2. 0.5 μl inhibitor in DMSO. • 3. 2 μl LTC4 synthase in PBS. The total protein concentration in this solution is 0.025 mg/ml. Incubation of the plate at room temperature for 10 minutes. • 4. 0.5 μl LTA4 methyl ester. Incubation of the plate at it for 1 min. • 5. 50 μl stop solution. 80 μl of the incubation mixture is analysed with HPLC.
An IC50 of 5700 nM was found for `Nc1ccc(Cc2ccc(Nc3ccc(F)c(Cl)c3)c(C(=O)O)c2)cc1C(=O)O` [Example 6, 2-amino-5-(3-carboxy-4-(3-chloro-4-fluorophenylamino)benzyl)benzoic acid] in this work. An IC50 of 740 nM was found for `Nc1ccc(Cc2ccc(Nc3ccc(Br)cc3F)c(C(=O)O)c2)cc1C(=O)O` [Example 8, 2-amino-5-(4-(4-bromo-2-fluorophenyl-amino)-3-carboxybenzyl)benzoic acid] in this work. An IC50 of 3400 nM was found for `O=C(O)c1ccccc1Nc1ccc(Cc2ccc(Nc3ccccc3C(=O)O)c(C(=O)O)c2)cc1C(=O)O` [Example 9, 5,5′-methylenebis(2-(2-carboxyphenyl-amino)benzoic acid)] in this work. An IC50 of 2800 nM was found for `Nc1ccc(Cc2ccc(Nc3ccc(F)cc3)c(C(=O)O)c2)cc1C(=O)O` [Example 12, 2-amino-5-(3-carboxy-4-(4-fluoro-phenylamino)benzyl)benzoic acid] in this work. An IC50 of 6410 nM was found for `CC(C)Oc1ccc(Nc2ccc(Cc3ccc(N)c(C(=O)O)c3)cc2C(=O)O)cc1` [Example 27, 2-amino-5-(3-carboxy-4-(4-isopropoxy-phenylamino)benzyl)benzoic acid] in this work. An IC50 of 1800 nM was found for `COc1cccc(NC(=O)Nc2ccc(Cc3ccc(NC(=O)Nc4cccc(OC)c4)c(C(=O)O)c3)cc2C(=O)O)c1` [Example 55, 5,5′-methylenebis-(2-(3-(3-methoxyphenyl)-ureido)benzoic acid)] in this work. An IC50 of 4000 nM was found for `O=C(Nc1ccccc1F)Nc1ccc(Cc2ccc(NC(=O)Nc3ccccc3F)c(C(=O)O)c2)cc1C(=O)O` [Example 57, 5,5′-methylenebis-(2-(3-(2-fluorophenyl)-ureido)benzoic acid)] in this work. An IC50 of 5800 nM was found for `O=C(Nc1ccc(Cc2ccc(NC(=O)Nc3c(Cl)cccc3Cl)c(C(=O)O)c2)cc1C(=O)O)Nc1c(Cl)cccc1Cl` [Example 62, 5,5′-methylenebis-(2-(3-(2,6-dichlorophenyl)-ureido)benzoic acid)] in this work. An IC50 of 2800 nM was found for `CC(=O)Nc1ccc(S(=O)(=O)Nc2ccc(Cc3ccc(NS(=O)(=O)c4ccc(NC(C)=O)c(Cl)c4)c(C(=O)O)c3)cc2C(=O)O)cc1Cl` [Example 67, 5,5′-methylenebis(2-(4-acetamido-3-chlorophenylsulfonamido)benzoic acid)] in this work. An IC50 of 1300 nM was found for `O=C(O)c1cc(Cc2ccc(NS(=O)(=O)c3ccccc3C(F)(F)F)c(C(=O)O)c2)ccc1NS(=O)(=O)c1ccccc1C(F)(F)F` [Example 69, 5,5′-methylenebis(2-(2-(trifluoromethyl)phenylsulfonamido)benzoic acid)] in this work. An IC50 of 700 nM was found for `O=C(O)c1cc(Cc2ccc(NS(=O)(=O)c3cc(C(F)(F)F)cc(C(F)(F)F)c3)c(C(=O)O)c2)ccc1NS(=O)(=O)c1cc(C(F)(F)F)cc(C(F)(F)F)c1` [Example 74, 5,5′-methylenebis(2-(3,5-bis(trifluoromethyl)-phenylsulfonamido)benzoic acid)] in this work. An IC50 of 3400 nM was found for `Cc1ccc(CNc2ccc(Cc3ccc(NCc4ccc(C)cc4)c(C(=O)O)c3)cc2C(=O)O)cc1` [Example 89, 5-(3-Carboxy-4-(4-methyl-benzylamino)-benzyl)-2-(4-methyl-benzylamino)-benzoic acid] in this work. An IC50 of 2300 nM was found for `O=C(O)c1cc(Cc2ccc(NCc3cccc(OCc4ccccc4)c3)c(C(=O)O)c2)ccc1NCc1cccc(OCc2ccccc2)c1` [Example 93] in this work.
